In BigSolDB 2.1:

For `Nc1ccc(Oc2ccc(N)cc2)cc1`, the solubility (mole fraction) (in 2-ethoxyethanol, 283.15 K) was 0.0274, the solubility (mole fraction) (in 2-ethoxyethanol, 288.15 K) was 0.0288 and the solubility (mole fraction) (in 2-ethoxyethanol, 293.15 K) was 0.0306. The solubility (mole fraction) (in 2-ethoxyethanol, 298.15 K) was 0.0329, the solubility (mole fraction) (in 2-ethoxyethanol, 303.15 K) was 0.0358 and the solubility (mole fraction) (in 2-ethoxyethanol, 308.15 K) was 0.0394. The solubility (mole fraction) (in 2-ethoxyethanol, 313.15 K) was 0.0436, the solubility (mole fraction) (in 2-ethoxyethanol, 318.15 K) was 0.0486 and the solubility (mole fraction) (in 2-ethoxyethanol, 323.15 K) was 0.0544. The solubility (mole fraction) (in DMAc, 283.15 K) was 0.133, the solubility (mole fraction) (in DMAc, 288.15 K) was 0.136 and the solubility (mole fraction) (in DMAc, 293.15 K) was 0.139. It also gave a solubility (mole fraction) (in DMAc, 298.15 K) of 0.143, a solubility (mole fraction) (in DMAc, 303.15 K) of 0.147 and a solubility (mole fraction) (in DMAc, 308.15 K) of 0.152. It also gave a solubility (mole fraction) (in DMAc, 313.15 K) of 0.156, a solubility (mole fraction) (in DMAc, 318.15 K) of 0.162 and a solubility (mole fraction) (in DMAc, 323.15 K) of 0.168. For the same molecule, the solubility (mole fraction) (in DMF, 283.15 K) was 0.104, the solubility (mole fraction) (in DMF, 288.15 K) was 0.107 and the solubility (mole fraction) (in DMF, 293.15 K) was 0.11. It also gave a solubility (mole fraction) (in DMF, 298.15 K) of 0.115, a solubility (mole fraction) (in DMF, 303.15 K) of 0.12 and a solubility (mole fraction) (in DMF, 308.15 K) of 0.126. The solubility (mole fraction) (in DMF, 313.15 K) was 0.132, the solubility (mole fraction) (in DMF, 318.15 K) was 0.138 and the solubility (mole fraction) (in DMF, 323.15 K) was 0.145. The solubility (mole fraction) (in DMSO, 298.15 K) was 0.153, the solubility (mole fraction) (in DMSO, 303.15 K) was 0.159 and the solubility (mole fraction) (in DMSO, 308.15 K) was 0.165. For the same molecule, the solubility (mole fraction) (in DMSO, 313.15 K) was 0.172, the solubility (mole fraction) (in DMSO, 318.15 K) was 0.179 and the solubility (mole fraction) (in DMSO, 323.15 K) was 0.187. It also gave a solubility (mole fraction) (in ethanol, 283.15 K) of 0.000434, a solubility (mole fraction) (in ethanol, 288.15 K) of 0.000549 and a solubility (mole fraction) (in ethanol, 293.15 K) of 0.0007. The solubility (mole fraction) (in ethanol, 298.15 K) was 0.00089, the solubility (mole fraction) (in ethanol, 303.15 K) was 0.00113 and the solubility (mole fraction) (in ethanol, 308.15 K) was 0.00143. For the same molecule, the solubility (mole fraction) (in ethanol, 313.15 K) was 0.00176, the solubility (mole fraction) (in ethanol, 318.15 K) was 0.00217 and the solubility (mole fraction) (in ethanol, 323.15 K) was 0.0027. The solubility (mole fraction) (in methanol, 283.15 K) was 0.00114, the solubility (mole fraction) (in methanol, 288.15 K) was 0.00132 and the solubility (mole fraction) (in methanol, 293.15 K) was 0.00153. The solubility (mole fraction) (in methanol, 298.15 K) was 0.00178, the solubility (mole fraction) (in methanol, 303.15 K) was 0.00208 and the solubility (mole fraction) (in methanol, 308.15 K) was 0.00246. The solubility (mole fraction) (in methanol, 313.15 K) was 0.00293, the solubility (mole fraction) (in methanol, 318.15 K) was 0.00349 and the solubility (mole fraction) (in methanol, 323.15 K) was 0.00416.
